Data on 38 compounds can be found in patent publication US20050130989A1, “N-arylheteroaromatic products compositions containing them and use thereof” (Aventis Pharma S. A., priority 2003, published 2005).

Read-outs that look alike come from different tables or passages of the source.

Experiment [1] concerns the target T1, tubulin (Sus scrofa, UniProt P02550+P02554).
T1 construct: Tubulin is purified from pig brain according to published methods; from tissue; host or cells: pig brain
Briefly: Evaluation of the inhibition of tubulin polymerization (turbidimetry). In kind it is biochemical, pig. The settings on record: tubulin 10 μm (1 mg/ml), 37° C., turbidity at 350 nm; concentration that inhibits the rate of polymerization by 50%; read-out: Inhibition of tubulin polymerization IC 50 (μm). As to the method:
Tubulin is purified from pig brain according to published methods (Shelanski et al., 1973, Proc. Natl. Acad. Sci. USA, 70, 765-768. Weingarten et al., 1975, Proc. Natl. Acad. Sci. USA, 72, 1858-1862). Briefly, the brains are ground and centrifuged in an extraction buffer. The tubulin contained in the supernatant of the extract undergoes two successive cycles of polymerization at 37° C. and depolymerization at 4° C., before being separated from the MAPs (Microtubule Associated Proteins) by chromatography on a phosphocellulose P11 column (Whatman). The tubulin thus isolated is more than 95% pure. It is stored in a buffer known as RB/2 30% glycerol, the composition of which is 50 mM MES-NaOH [2-(N-morpholino)ethanesulfonic acid], pH 6.8; 0.25 mM MgCl2; 0.5 mM EGTA; 30% glycerol (v/v), 0.2 mM GTP (guanosine-5′-triphosphate).
The polymerization of tubulin to microtubules is monitored by turbidimetry as follows: the tubulin is adjusted to a concentration of 10 μm (1 mg/ml) in RB/2 30% glycerol buffer to which 1 mM GTP and 6 mM MgCl2 are added. The polymerization is triggered by an increase in temperature from 6° C. to 37° C. in a cuvette with an optical path length of 1 cm, placed in a UVIKON 931 spectrophotometer (Kontron) equipped with a thermostatically maintained cuvette holder. The increase in the turbidity of the solution is monitored at 350 nm.
The products are dissolved at 10 mM in DMSO and added at variable concentrations (0.5 to 10 μm) to the tubulin solution before polymerization. The IC50 value is defined as the concentration of product that inhibits the rate of polymerization by 50%.

In experiment [2] the test system is HCT116 cells. Kind of experiment: Inhibition of proliferation of the human colon tumor line HCT116 ([14C]-thymidine incorporation). In kind it is cell-based. To be noted: 48 hours at 37° C., read-out: Inhibition of HCT116 proliferation IC 50 (μm). As to the method:
The proliferation of HCT116 cells is evaluated by measuring the incorporation of [^14C]-thymidine in the following manner. The HCT 116 cells (obtained from the ATCC) are cultured in a DMEM medium (Gibco) containing 10% fetal calf serum and antibiotics (1% penicillin, 1% streptomycin). To perform the proliferation test, the cells are inoculated in cytostar 96-well microplates (Amersham), at a rate of 5000 cells per well. [^14C]-thymidine (0.1 μCi/well) and the products to be evaluated are then added. Variable concentrations of products up to 10 μm are used; the DMSO (solvent used to dissolve the products) should not exceed 0.5% in the medium. 48 hours after incubation at 37° C., the radioactivity incorporated into the cells is measured by counting the plate in a TRI-LUX counter (Wallac). The IC50 is defined as the concentration of product that reduces the radioactivity by 50% compared with an untreated control. A product whose IC50 is less than 3 μm is considered cytotoxic.

T1 sequence (P02550 whole entry): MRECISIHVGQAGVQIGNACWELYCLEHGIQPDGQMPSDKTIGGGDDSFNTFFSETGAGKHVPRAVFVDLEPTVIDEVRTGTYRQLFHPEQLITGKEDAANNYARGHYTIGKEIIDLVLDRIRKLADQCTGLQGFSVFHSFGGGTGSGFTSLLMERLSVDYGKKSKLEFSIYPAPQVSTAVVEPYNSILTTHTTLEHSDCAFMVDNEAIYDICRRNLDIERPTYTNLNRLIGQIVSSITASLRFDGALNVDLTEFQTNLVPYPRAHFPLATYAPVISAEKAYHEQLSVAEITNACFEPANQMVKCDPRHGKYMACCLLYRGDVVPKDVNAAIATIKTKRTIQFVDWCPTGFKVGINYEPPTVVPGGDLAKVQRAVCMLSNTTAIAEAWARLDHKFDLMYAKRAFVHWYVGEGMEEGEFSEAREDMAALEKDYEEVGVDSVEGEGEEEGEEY
T1 sequence (P02554 whole entry): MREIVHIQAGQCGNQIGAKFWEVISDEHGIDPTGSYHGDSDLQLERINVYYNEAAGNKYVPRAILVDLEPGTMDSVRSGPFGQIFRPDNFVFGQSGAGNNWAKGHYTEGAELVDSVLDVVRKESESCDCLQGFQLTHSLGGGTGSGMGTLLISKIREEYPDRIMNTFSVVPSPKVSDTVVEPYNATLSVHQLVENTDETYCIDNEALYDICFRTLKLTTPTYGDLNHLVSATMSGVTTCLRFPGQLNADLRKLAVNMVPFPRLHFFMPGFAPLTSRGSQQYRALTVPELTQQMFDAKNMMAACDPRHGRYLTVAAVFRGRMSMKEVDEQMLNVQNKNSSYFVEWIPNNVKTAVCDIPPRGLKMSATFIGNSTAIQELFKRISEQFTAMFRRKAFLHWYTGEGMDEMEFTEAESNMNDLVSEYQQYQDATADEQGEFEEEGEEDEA

For `Cc1cc(C(=O)N2CCN(c3cccc(Cl)c3Cl)CC2)n(-c2ccc(F)cc2)n1` [3/119], the IC50 in experiment [1] amounted to 3100 nM; in experiment [2] (Homo sapiens, HCT-116, 48 h) it was 562 nM.

As to `Cc1cc(C(=O)N2CCN(c3cccc(C(N)=O)c3)CC2)n(-c2cccnc2)n1` [Example E97, 3-[4-(5-Methyl-2-pyrid-3-yl-2H-pyrazole-3-carbonyl)piperazin-1-yl]benzamide], the IC50 in experiment [1] was 3600 nM; in experiment [2] (Homo sapiens, HCT-116, 48 h), 81.1 nM.

For `Cc1cc(C(=S)N2CCN(c3cccc(Cl)c3)CC2)n(-c2ccccc2)n1` [Example E7, [4-(3-Chlorophenyl)piperazin-1-yl](5-methyl-2-phenyl-2H-pyrazol-3-yl)-methanethione], the IC50 in experiment [1] was 1400 nM; in experiment [2] (Homo sapiens, HCT-116, 48 h) it was 11 nM.

As for `CNCCNC(=O)c1cccc(N2CCN(C(=O)c3cc(C)nn3-c3ccccc3)CC2)c1` [Example E110, N-(2-Methylaminoethyl)-3-[4-(5-methyl-2-phenyl-2H-pyrazole-3-carbonyl)piperazin-1-yl]benzamide], the IC50 was 12000 nM in experiment [1] and 1170 nM in experiment [2] (Homo sapiens, HCT-116, 48 h).

As to `COc1cccc(-n2nc(C)cc2C(=O)N2CCN(c3cccc(Cl)c3)CC2)c1` [3/35], the IC50 was 5000 nM in experiment [1] and 284 nM in experiment [2] (Homo sapiens, HCT-116, 48 h).

As for `Cc1cc(C(=O)N2CCN(c3ccc(Cl)c(Cl)c3)CC2)n(-c2cccc(Cl)c2)n1` [3/65], the IC50 in experiment [1] worked out at 1300 nM; in experiment [2] (Homo sapiens, HCT-116, 48 h), 73 nM.

Regarding `COc1cc(OC)cc(N2CCN(C(=O)c3cc(NCc4ccccc4)nn3-c3ccccc3)CC2)c1` [Example E98, (5-Benzylamino-2-phenyl-2H-pyrazol-3-yl)[4-(3,5-dimethoxyphenyl)piperazin-1-yl]methanone], the IC50 amounted to 1400 nM in experiment [1] and 223 nM in experiment [2] (Homo sapiens, HCT-116, 48 h).

For the compound `Cc1cc(C(=O)N2CCN(c3cccc(Cl)c3)CC2)n(-c2ccccc2C)n1` [Example E45, [4-(3-Chlorophenyl)piperazin-1-yl](5-methyl-2-o-tolyl-2H-pyrazol-3-yl)methanone], the IC50 was determined as 990 nM in experiment [1] and 10.5 nM in experiment [2] (Homo sapiens, HCT-116, 48 h).

In the case of `Cc1cc(C(=O)N2CCN(c3ccccc3)CC2)n(-c2ccccc2)n1` [3/6], the IC50 is 4500 nM in experiment [1] and 177 nM in experiment [2] (Homo sapiens, HCT-116, 48 h).

As for `Cc1cccc(-n2nc(C)cc2C(=O)N2CCN(c3ccc(F)cc3)CC2)c1` [3/47], the IC50 in experiment [1] was determined as 8000 nM; in experiment [2] (Homo sapiens, HCT-116, 48 h), 312 nM.

With `COc1cccc(-n2nc(C)cc2C(=O)N2CCN(c3cc(Cl)ccc3OC)CC2)c1` [3/5], the IC50 in experiment [1] amounted to 3000 nM; in experiment [2] (Homo sapiens, HCT-116, 48 h), 238 nM.

On to `Cc1cccc(N2CCN(C(=O)c3cc(C)nn3-c3cccc(C)c3)CC2)c1` [3/50], for which the IC50 stood at 1500 nM in experiment [1] and 6.1 nM in experiment [2] (Homo sapiens, HCT-116, 48 h).

`Cc1cc(C(=O)N2CCN(c3ccc4c(c3)OCCO4)CC2)n(-c2ccc(F)cc2)n1` [3/62]: the IC50 was determined as 6000 nM in experiment [1] and 71 nM in experiment [2] (Homo sapiens, HCT-116, 48 h).

Take `Cc1cc(C(=O)N2CCN(c3cc(Cl)ccc3Br)CC2)n(-c2ccccc2)n1` [Example E77, [4-(2-Bromo-5-chlorophenyl)piperazin-1-yl](5-methyl-2-phenyl-2H-pyrazol-3-yl)methanone]: the IC50 is 700 nM in experiment [1] and 26.7 nM in experiment [2] (Homo sapiens, HCT-116, 48 h).

For `Cc1cc(C(=O)N2CCN(c3ccc(C)c(C)c3)CC2)n(-c2cccc(F)c2)n1` [3/17], the IC50 in experiment [1] was determined as 3500 nM; in experiment [2] (Homo sapiens, HCT-116, 48 h), 159 nM.

With `NC(=O)c1cccc(N2CCN(C(=O)c3cccn3-c3ccccc3)CC2)c1` [Example E57, 3-[4-(1-Phenyl-1H-pyrrole-2-carbonyl)piperazin-1-yl]benzamide], the IC50 in experiment [1] came out at 2000 nM; in experiment [2] (Homo sapiens, HCT-116, 48 h), 89.8 nM.

For the compound `Cc1cccc(N2CCN(C(=O)c3cc(C)nn3-c3ccccc3)CC2)c1` [3/11], the IC50 was 3000 nM in experiment [1] and 36 nM in experiment [2] (Homo sapiens, HCT-116, 48 h).

Turning to `CCc1ccccc1N1CCN(C(=O)c2cc(C)nn2-c2cccc(C)c2)CC1` [3/29], the IC50 turned out to be 5000 nM in experiment [1] and 452 nM in experiment [2] (Homo sapiens, HCT-116, 48 h).

For `Cc1cccc(-n2nc(C)cc2C(=O)N2CCN(c3cccc(Cl)c3)CC2)c1` [3/31], the IC50 in experiment [1] was 1300 nM; in experiment [2] (Homo sapiens, HCT-116, 48 h) it was 140 nM.

With `COc1cc(OC)cc(N2CCN(C(=O)c3cc(/C=N\O)nn3-c3ccccc3)CC2)c1` [Example E95, 5-[4-(3,5-Dimethoxyphenyl)piperazine-1-carbonyl]-1-phenyl-1H-pyrazole-3-carboxaldehyde oxime Z], the IC50 amounted to 800 nM in experiment [1] and 0.17 nM in experiment [2] (Homo sapiens, HCT-116, 48 h).

Consider `Cc1cc(C(=O)N2CCN(c3ccc(Cl)c(Cl)c3)CC2)n(-c2ccccc2)n1` [3/110], for which, in experiment [2] (Homo sapiens, HCT-116, 48 h), the IC50 stood at 299 nM.

Regarding `Cc1ccnc(N2CCN(C(=O)c3cc(C)nn3-c3ccccc3)CC2)c1` [Example E31, (5-Methyl-2-phenyl-2H-pyrazol-3-yl)[4-(4-methylpyrid-2-yl)piperazin-1-yl]methanone], the IC50 in experiment [1] came to 1500 nM; in experiment [2] (Homo sapiens, HCT-116, 48 h), 20.8 nM.

On to `O=C(c1cc(-c2ccccc2)nn1-c1ccccc1)N1CCN(c2cccc(Cl)c2)CC1` [Example E66, [4-(3-Chlorophenyl)piperazin-1-yl](2,5-diphenyl-2H-pyrazol-3-yl)methanone], for which the IC50 in experiment [1] is 3700 nM; in experiment [2] (Homo sapiens, HCT-116, 48 h), 1830 nM.

Take `Cc1cc(C(=O)N2CCN(c3cccc4ccccc34)CC2)n(-c2ccc(F)cc2)n1` [3/59]: the IC50 in experiment [1] stood at 5700 nM; in experiment [2] (Homo sapiens, HCT-116, 48 h), 4980 nM.

Take `Cc1cc(C(=O)N2CCN(c3cccc(C(F)(F)F)c3)CC2)n(-c2cccc(Cl)c2)n1` [3/121]: the IC50 in experiment [1] is 3300 nM; in experiment [2] (Homo sapiens, HCT-116, 48 h), 51 nM.

As to `COc1ccc(-n2nc(C)cc2C(=O)N2CCN(c3cccc(Cl)c3Cl)CC2)cc1` [3/106], the IC50 in experiment [1] stood at 7000 nM; in experiment [2] (Homo sapiens, HCT-116, 48 h), 985 nM.

As to `Cc1cccc(N2CCN(C(=O)c3cc(C)nn3-c3ccccc3F)CC2)c1` [3/16], the IC50 in experiment [1] was determined as 6000 nM; in experiment [2] (Homo sapiens, HCT-116, 48 h), 224 nM.

Take `O=C(c1cc(OCc2ccccc2)nn1-c1ccccn1)N1CCN(c2cccc(Cl)c2)CC1` [Example E61, (5-Benzyloxy-2-pyrid-2-yl-2H-pyrazol-3-yl)[4-(3-chlorophenyl)piperazin-1-yl]methanone]: the IC50 in experiment [1] was 2300 nM; in experiment [2] (Homo sapiens, HCT-116, 48 h), 6090 nM.

On to `CCOC(=O)c1cccc(N2CCN(C(=O)c3cc(C)nn3-c3ccccc3)CC2)c1` [Example E28, ethyl ester of 3-[4-(5-methyl-2-phenyl-2H-pyrazole-3-carbonyl)piperazin-1-yl]benzoic acid], for which the IC50 is 3400 nM in experiment [1] and 60.6 nM in experiment [2] (Homo sapiens, HCT-116, 48 h).

With `COc1ccc(-n2nc(C)cc2C(=O)N2CCN(c3cccc(Cl)c3)CC2)cc1` [3/39], in experiment [2] (Homo sapiens, HCT-116, 48 h), the IC50 worked out at 734 nM.

With `COc1cccc(-n2nc(C)cc2C(=O)N2CCN(c3ccc(C)c(C)c3)CC2)c1` [3/2], the IC50 in experiment [2] (Homo sapiens, HCT-116, 48 h) came out at 312 nM.

`Cc1cc(C(=O)N2CCN(c3ccc(C(F)(F)F)cc3)CC2)n(-c2cccc(Cl)c2)n1` [3/126]: the IC50 in experiment [2] (Homo sapiens, HCT-116, 48 h) amounted to 8740 nM.

As to `COc1ccccc1N1CCN(C(=O)c2cc(C)nn2-c2cccc(Cl)c2)CC1` [3/120], the IC50 in experiment [2] (Homo sapiens, HCT-116, 48 h) stood at 40 nM.

In the case of `COc1ccccc1N1CCN(C(=O)c2cc(C)nn2-c2ccccc2F)CC1` [3/144], the IC50 in experiment [2] was 255 nM.

For the compound `COc1ccccc1N1CCN(C(=O)c2cc(C)nn2-c2ccccc2F)CC1` [3/85], in experiment [2] (Homo sapiens, HCT-116, 48 h), the IC50 was 189 nM.

For `COCOCc1cc(C(=O)N2CCN(c3cccc(C(N)=O)c3)CC2)n(-c2ccccc2)n1` [Example E113, 3-[4-(5-Methoxymethoxymethyl-2-phenyl-2H-pyrazole-3-carbonyl)piperazin-1-yl]benzamide], the IC50 in experiment [1] was 9200 nM.

Take `COc1cc(OC)cc(N2CCN(C(=O)c3c(F)c(F)nn3-c3ccccc3)CC2)c1` [Example E139, [4-(3,5-dimethoxyphenyl)piperazin-1-yl](4,5-difluoro-2-phenyl-2H-pyrazol-3-yl)methanone]: in experiment [1], the IC50 is 2900 nM.

On to `COc1cc(OC)cc(N2CCN(C(=O)c3cc(CC#N)nn3-c3ccccc3)CC2)c1` [Example E135, (5-Cyanomethyl-2-phenyl-2H-pyrazol-3-yl)[4-(3,5-dimethoxyphenyl)piperazin-1-yl]methanone], for which the IC50 in experiment [1] is 500 nM.
